Source: patent US20180346731A1, “Formation of Stable Pyranoanthocyanins, and Uses Thereof as Sources of Natural Color” (Ohio State Innovation Foundation, priority 2017, published 2018)

How the values were obtained:
Type in all cases: physicochemical
[1] = Colorimetry (CIEL*c*h*, ΔE2000) of anthocyanin isolates treated with pyruvic acid, 31 days storage; settings: for total color change (ΔE): day 0 vs day 31, Delta E2000; for ΔL* / Δc*: day 0 to day 31; for increase in hue angle: over 31 days
Description: (§1) Prior to dilution, the concentrations of the isolated pigment extracts were determined by the pH differential method for subsequent dilution to known concentrations. The isolates were then diluted to 500 μM (expressed as Cyanidin-3-glucoside equivalents) in pH 2.5 deionized water (previously adjusted with HCl) which contained 0.1% potassium sorbate (w/v) and 0.1% sodium benzoate (w/v) to function as preservative agents during storage. A pH of 2.5 was selected as a compromise of several variables: the flavylium form was predominant, the effect of pKh was minimized, and it is a relevant pH for wines. It has been reported that the pKh's of cy3 gal, cy3xylgal, and cy3xylglugal ranges from 3.01 to 3.26. Working at pH 2.5 largely avoided the effect of different equilibrium forms while also maintaining a pH that is similar to that of wines where these compounds are commonly formed. Control samples of each isolate were prepared and contained no pyruvic acid. For treatments containing pyruvic acid, a previously diluted pyruvic acid standard (pyruvic acid in the same pH 2.5 water containing preservatives) was added to obtain concentrations 100× the molar ratio of anthocyanins (50 mM of pyruvic acid). All treatments were brought to the same final volume by the addition of more pH 2.5 water. Samples were filtered through a 0.2 μm membrane into 1.5 mL glass HPLC vials. Vials were capped and stored in an incubator in the dark at 25° C. for a 31 day duration (Fisher Scientific, Waltham, Mass., U.S.). All treatments were prepared in triplicate.
Colorimetric data of samples was calculated from spectra of samples collected from the plate reader with ColorBySpectra. Absorbance data was obtained and conversion to color values was achieved using the following settings: regular transmission, D65 illuminant, and 10° observer angle. Values reported are in the CIEL*c*h* scale. After storage for 31 days, the mathematical differences in color (ΔE) were calculated according to the CIE-L*a*b* Delta E2000 equation. Colorimetric data of the samples containing pyruvic acid was used to correlate with pyranoanthocyanins formation. Spectral absorbance data of the peaks of the anthocyanins and their respective pyranoanthocyanins were also collected from the PDA during uHPLC analyses and converted to colorimetric data using ColorBySpectra under the settings described above. The spectra was obtained from the time of elution of the target compound and then standardized to an absorbance of 1.0 at λvis-max.

[2] = Anthocyanin survival of control treatments at pH 2.5 (uHPLC AUC 500-520 nm); settings: pH 2.5 acidified water, no pyruvic acid, 25° C., day 31
Description: FIG. 10: Pyranoanthocyanin yield for anthocyanins (500 μM) subjected to pyruvic acid treatment (×100 M ratio) and anthocyanin survival of control treatments at pH 2.5 acidified water at day 7, 14, and 31. Yield defined as (AUC500-520 nm of PACN at tn/AUC500-520 nm of ACN @t0)*100. Survival defined as (AUC500-520 nm of ACN at tn/AUC500-520 nm of ACN @ t0)*100. Values shown are means (n=3) and bars represent standard deviation.
A uHPLC system (Shimadzu Nexera-i LC-2040C, Maryland, U.S.) coupled with tandem MS (Shimadzu LCMS-8040, Maryland, U.S.) was used in evaluating initial anthocyanin purity and monitoring changes in anthocyanins with and without pyruvic acid treatment over time. A 0.4 mL/min flow rate was used on a Pinnacle DB (Restek Corporation, Bellefonte, Pa.) C18 Column (1.9 μm particle size, 50×2.1 mm length). The column oven was set at 40° C. The following gradient of solvent A (4.5% formic acid) and B (100% acetonitrile) was used: 0% B for the first minute, ramped to 15% B by 10 min. This method was effective for separation of the formed pyranoanthocyanin from anthocyanin for all isolates except cy3rut which coeluted with the formed pyranoanthocyanin. This was observed through MS-MS data. […]
Quantification of pigments was conducted on day 0, 3, 7, 14, and 31 using a standard curve of cyanidin-3-glucoside (Sigma Aldrich, St. Louis, Mo., U.S.) run under the same conditions used for isolates. Molar absorptivities of anthocyanins and carboxypyranoanthocyanidins have been reported as being relatively similar and were thought to provide a basis of confidence in using AUC500-520 nm as a quantitative measure of pyranoanthocyanin yield.
Prior to dilution, the concentrations of the isolated pigment extracts were determined by the pH differential method for subsequent dilution to known concentrations. The isolates were then diluted to 500 μM (expressed as Cyanidin-3-glucoside equivalents) in pH 2.5 deionized water (previously adjusted with HCl) which contained 0.1% potassium sorbate (w/v) and 0.1% sodium benzoate (w/v) to function as preservative agents during storage. […]

[3] = UV-Vis spectra of anthocyanin isolates treated with pyruvic acid, 31 days storage; settings: for decrease in maximum absorbance: 500 μM, pyruvic acid ×100 M ratio, pH 2.5, 25° C., after 31 days
Description: as §1
Absorbance spectra of anthocyanin isolates subjected to pyruvic acid treatment was collected using a SpectraMax 190 microplate reader (Molecular Devices, Sunnyvale, Calif., U.S.). Sample aliquots (75 μL) were loaded in a 96-well plate (poly-D-lysine coated polystyrene). Samples were evaluated from 380 to 780 nm in 1 nm intervals. The blank consisted of the same acidified pH 2.5 water solution used to dilute pigment samples. Spectra were collected on day 0, 7, 14, and 31. Spectrophotometric data of the samples was used to correlate with pyranoanthocyanins formation.

total color change (ΔE) [1]	decrease in maximum absorbance [3] [%]	SMILES	also measured
7.8	–	OC[C@H]1O[C@@H](Oc2cc3c(O)cc(O)cc3[o+]c2-c2ccc(O)c(O)c2)[C@H](O[C@@H]2OC[C@@H](O)[C@H](O)[C@H]2O)[C@@H](O)[C@H]1O [cy3xylgal, cyanidin-3-(xylosyl)galactoside]	–
9.2	–	OCC1O[C@@H](Oc2cc3c(O)cc(O)cc3[o+]c2-c2ccc(O)c(O)c2)C(O[C@@H]2OC(CO)[C@@H](O)C(O)[C@H]2O)C(O)[C@@H]1O (stereo partly drawn) [cy3soph, cyanidin-3-sophoroside]	–
3.6	26	OC[C@H]1O[C@@H](OC[C@H]2O[C@@H](Oc3cc4c(O)cc(O)cc4[o+]c3-c3ccc(O)c(O)c3)[C@H](O)[C@@H](O)[C@H]2O)[C@H](O)[C@@H](O)[C@@H]1O [cy3glugal, cyanidin-3-(glucosyl)galactoside]	ΔL* [1]: 1.8; increase in hue angle [1]: 0.5 °
9.7	–	OC[C@H]1O[C@@H](Oc2cc(O)cc3[o+]c(-c4ccc(O)c(O)c4)c(O[C@@H]4O[C@H](CO)[C@@H](O)[C@H](O)[C@H]4O[C@@H]4O[C@H](CO)[C@@H](O)[C@H](O)[C@H]4O)cc23)[C@H](O)[C@@H](O)[C@@H]1O [cy3soph5glu, cyanidin-3-sophoroside-5-glucoside]	initial L* ([1]; pH 2.5, day 0): 87.5
4.9	30	C[C@@H]1O[C@@H](OC[C@H]2O[C@@H](Oc3cc4c(O)cc(O)cc4[o+]c3-c3ccc(O)c(O)c3)[C@H](O)[C@@H](O)[C@@H]2O)[C@H](O)[C@H](O)[C@H]1O [cy3rut, cyanidin-3-rutinoside]	Δc* [1]: −9.7; increase in hue angle [1]: 1.1 °
8.3	–	OC[C@H]1O[C@@H](OC[C@H]2O[C@@H](Oc3cc4c(O)cc(O)cc4[o+]c3-c3ccc(O)c(O)c3)[C@H](O[C@@H]3OC[C@@H](O)[C@H](O)[C@H]3O)[C@@H](O)[C@H]2O)[C@H](O)[C@@H](O)[C@@H]1O [cy3xylglugal, cyanidin-3-(xylosylglucosyl) galactoside]	–

SMILES	total color change (ΔE) [1]	decrease in maximum absorbance [3] [%]	also measured
Oc1cc(O)c2cc(O[C@@H]3OC[C@H](O)[C@H](O)[C@H]3O)c(-c3ccc(O)c(O)c3)[o+]c2c1 [cy3ara, cyanidin-3-arabinoside]	16.4	71	anthocyanin survival of control treatment [2]: 66%; shift of λvis-max of solution ([3]; pyruvic acid treated, pH 2.5, by day 31): bathochromic shift; ΔL* [1]: 10.2; Δc* [1]: −42.5
OC[C@H]1O[C@@H](Oc2cc3c(O)cc(O)cc3[o+]c2-c2ccc(O)c(O)c2)[C@H](O)[C@@H](O)[C@@H]1O [cy3glu, cyanidin-3-glucoside]	7.2	–	anthocyanin survival of control treatment [2]: 49%
